The test system of test [1] is NCI-H292 lung cancer cells. Briefly: FDA drug screening, complete media vs cholesterol-free media without statin (TABLE 1). It is filed as cell-based, human.
In test [2] the test system is NCI-H292 lung cancer cells. Briefly: FDA drug screening, complete media vs cholesterol-free media with simvastatin (TABLE 2). It is filed as cell-based, human. Particulars: for Cholesterol-free media + simvastatin (0.04 μM) / Complete Media: NCI-H292 cells.
Setting [3] is: Complete minus Cholesterol-free, >0 enhanced anti-cancer activity, about 0 neutral, <0 antagonist.
Setting [4] is: NCI-H292 cells, cholesterol-free media without statin.
[5] abbreviates: cholesterol-free media with simvastatin 0.04 μM, FDA drug library screen (TABLE 2).
Where [6] appears, read: complete media, FDA drug library screen (TABLE 2).
Where [7] appears, read: complete media minus cholesterol-free media + simvastatin (0.04 μM), >0 enhanced anti-cancer activity, about 0 neutral, <0 antagonist.
[8] abbreviates: NCI-H292 cells, cholesterol-free media without statin, FDA drug library screen.
Setting [9] is: NCI-H292 cells, complete media, FDA drug library screen.
Where [10] appears, read: complete vs cholesterol-free media, >0 enhanced anti-cancer activity, about 0 neutral, <0 antagonist.
[11] abbreviates: complete media vs cholesterol-free media + simvastatin (0.04 μM), >0 enhanced anti-cancer activity, about 0 neutral, <0 antagonist.
[12] abbreviates: Complete minus Cholesterol-free, […].
Where [13] appears, read: FDA drug library screen, cholesterol-free media with simvastatin 0.04 μM.
Where [14] appears, read: FDA drug library screen, complete media.
The mark [15] stands for this setting: complete media vs cholesterol-free media + simvastatin (0.04 μM), […].
The mark [16] stands for this setting: complete vs cholesterol-free media, greater than 0 enhanced anti-cancer activity, about 0 neutral, below 0 antagonists.
Setting [17] is: FDA library drug in cholesterol-free media with simvastatin 0.04 μM.
Where [18] appears, read: FDA library drug in complete media.
The mark [19] stands for this setting: complete media minus cholesterol-free media + simvastatin, >0 enhanced anti-cancer activity, about 0 neutral, <0 antagonist.
Where [20] appears, read: cholesterol-free media with simvastatin 0.04 μM, cell growth value in FDA drug screen.
The mark [21] stands for this setting: complete media, cell growth value in FDA drug screen.

This is an account of results in patent US20250144067A1, “PERSONALIZED STARVATION THERAPY FOR CANCER” (Faeth Therapeutics, Inc., priority 2021, published 2025).

Counter-ions that a name gives are not always drawn.

On to `O=C1CN(/N=C/C=C/c2ccc([N+](=O)[O-])o2)C(=O)N1` [Furagin], for which the Difference in test [1] (setting [3]) is given as −0.23; in test [2] (setting [7]) it was −0.06. Further, the Cholesterol-free in test [1] (setting [4]) is 1.216. In test [1] (NCI-H292 cells, complete media), this compound yielded a Complete of 0.9861. Besides, the “Cholesterol-free media + simvastatin (0.04 μM)” value in test [2] (setting [5]) amounted to 1.137. For the same compound, the “Complete Media” value in test [2] (setting [6]) is listed as 1.079.
In test [1] (setting [8]), `Cc1nnc(NS(=O)(=O)c2ccc(N)cc2)s1` [Sulfamethizole] registered a Cholesterol-free of 0.6059. This compound also returned a Complete in test [1] (setting [9]) of 1.186. The Difference in test [1] (setting [10]) is on record as 0.58; in test [2] (setting [7]) it was −0.02. In addition, the “Cholesterol-free media + simvastatin (0.04 μM)” value in test [2] (setting [5]) was 1.154. Moreover, in test [2] (setting [6]), the “Complete Media” value was 1.13.
Compound `C[C@H]1CNCCCN1S(=O)(=O)c1cccc2cncc(F)c12` [Ripasudil] came in with a Cholesterol-free in test [1] (setting [8]) of 0.6571. Moreover, the Complete in test [1] (setting [9]) stood at 0.9065. In addition, the Difference is on record as 0.25 in test [1] (setting [10]) and −0.21 in test [2] (setting [11]). Further, the “Cholesterol-free media + simvastatin (0.04 μM)” value in test [2] (drug in cholesterol-free media with simvastatin 0.04 μM) is listed as 1.388. In test [2] (drug in complete media), the “Complete Media” value came out at 1.177.
Consider `Cc1ncc(CO)c(CO)c1O.O=C1CC[C@@H](C(=O)O)N1` [Metadoxine], for which the Difference in test [1] (setting [12]) was −0.12; in test [2] (setting [15]), −0.11. This compound yielded a Cholesterol-free in test [1] (NCI-H292 cells, FDA drug library screen, cholesterol-free media without statin) of 1.129. This compound displayed a Complete in test [1] (NCI-H292 cells, FDA drug library screen, complete media) of 1.01. In test [2] (setting [13]), the “Cholesterol-free media + simvastatin (0.04 μM)” value is 1.163. The “Complete Media” value in test [2] (setting [14]) turned out to be 1.057.
Turning to `CC(C)=CCC/C(C)=C/CC/C(C)=C/CC/C(C)=C/CC1=C(C)C(=O)c2ccccc2C1=O` [Menaquinone-4], the Cholesterol-free in test [1] (setting [4]) was found to be 1.129. The compound further came in with a Complete in test [1] (NCI-H292 cells, complete media) of 0.777. For the same compound, the Difference is −0.35 in test [1] (setting [16]) and −0.32 in test [2] (setting [11]). For the same compound, in test [2] (setting [17]), the “Cholesterol-free media + simvastatin (0.04 μM)” value stood at 1.094. In test [2] (setting [18]), the “Complete Media” value was 0.773.
As for `NCc1ccc(C(=O)O)cc1` [4-(Aminomethyl)benzoic acid], the Difference was −0.68 in test [1] (Complete minus Cholesterol-free, greater than 0 enhanced anti-cancer activity, about 0 neutral, below 0 antagonists) and −0.04 in test [2] (setting [7]). The Cholesterol-free in test [1] (NCI-H292 cells in cholesterol-free media without statin) is 1.961. For the same compound, in test [1] (NCI-H292 cells in complete media), the Complete turned out to be 1.286. Further, the “Cholesterol-free media + simvastatin (0.04 μM)” value in test [2] (setting [5]) was determined as 1.68. The “Complete Media” value in test [2] (setting [6]) is 1.637.
In the case of `CC(C)CCC[C@@H](C)[C@H]1CC[C@H]2[C@@H]3CC=C4C[C@@H](O)CC[C@]4(C)[C@H]3CC[C@]12C` [Cholesterol], the Difference in test [1] (setting [3]) is −0.27; in test [2] (setting [11]), −0.63. In test [1] (setting [4]), this compound yielded a Cholesterol-free of 1.34. In test [1] (NCI-H292 cells, complete media), this compound returned a Complete of 1.074. Besides, in test [2] (setting [17]), the “Cholesterol-free media + simvastatin (0.04 μM)” value is on record as 1.697. The “Complete Media” value in test [2] (setting [18]) stood at 1.069.
With `CC(N/C(=N\C#N)Nc1ccncc1)C(C)(C)C` (stereo not drawn) [Pinacidil monohydrate], the Difference in test [1] (setting [3]) is listed as −0.26; in test [2] (setting [11]), −0.28. Also, the Cholesterol-free in test [1] (setting [4]) came to 1.093. The compound further returned a Complete in test [1] (NCI-H292 cells, complete media) of 0.8337. The “Cholesterol-free media + simvastatin (0.04 μM)” value in test [2] (setting [17]) is on record as 1.085. The “Complete Media” value in test [2] (setting [18]) is 0.8064.
As to `COc1ccc(CCN(C)CCC[C@](C#N)(c2ccc(OC)c(OC)c2)C(C)C)cc1OC.Cl` [(R)-Verapamil (hydrochloride)], the Difference in test [1] (setting [12]) is on record as 0.02; in test [2] (setting [15]), −0.08. The same compound had a Cholesterol-free in test [1] (setting [8]) of 0.8697. For the same compound, in test [1] (setting [9]), the Complete was determined as 0.8867. Also, the “Cholesterol-free media + simvastatin (0.04 μM)” value in test [2] (setting [13]) stood at 1.005. For the same compound, in test [2] (setting [14]), the “Complete Media” value turned out to be 0.92.
Consider `COc1ccnc(C[S+]([O-])c2nc3cc(OC(F)F)ccc3[n-]2)c1OC.[Na+]` (stereo not drawn) [Pantoprazole (sodium)], for which the Difference in test [1] (setting [12]) is given as −0.01; in test [2] (complete media minus cholesterol-free media + simvastatin, […]) it was 0.13. The same compound displayed a Cholesterol-free in test [1] (setting [8]) of 0.8197. In test [1] (setting [9]), this compound returned a Complete of 0.8107. Also, the “Cholesterol-free media + simvastatin (0.04 μM)” value in test [2] (cholesterol-free media with simvastatin 0.04 μM, […]) is reported as 1.655. Further, the “Complete Media” value in test [2] (complete media, […]) was determined as 1.781.
In the case of `C=CCCCCCCCCC(=O)O` [10-Undecenoic acid (zinc salt)], the Difference in test [1] (setting [3]) was −0.19; in test [2] (setting [11]), −0.33. Also, the Cholesterol-free in test [1] (setting [4]) was 1.263. In test [1] (NCI-H292 cells, complete media), this compound came in with a Complete of 1.076. For the same compound, the “Cholesterol-free media + simvastatin (0.04 μM)” value in test [2] (setting [17]) was found to be 1.561. Further, the “Complete Media” value in test [2] (setting [18]) was 1.235.
Turning to `CCCN1C[C@H](C)[C@@H](O)[C@](C)(O)[C@@H](CC)OC(=O)[C@H](C)[C@@H](O[C@H]2C[C@@](C)(OC)[C@@H](O)[C@H](C)O2)[C@H](C)[C@@H](O[C@@H]2O[C@H](C)C[C@H](N(C)C)[C@H]2O)[C@](C)(O)C[C@H]1C` [Gamithromycin], in test [1] (setting [4]), the Cholesterol-free is reported as 1.35. For the same compound, the Complete in test [1] (NCI-H292 cells, complete media) was 0.886. The figures for the Difference in test [1] (setting [16]) and in test [2] (setting [19]) were −0.46 and 0.36, respectively. Moreover, the “Cholesterol-free media + simvastatin (0.04 μM)” value in test [2] (setting [13]) is 1.403. In test [2] (setting [14]), the “Complete Media” value is 1.765.
In test [1] (setting [4]), `CC1=NS(=O)(=O)c2cc(Cl)ccc2N1` [Diazoxide] registered a Cholesterol-free of 1.261. In test [1] (NCI-H292 cells, complete media), this compound came in with a Complete of 0.9038. In addition, the values for the Difference in test [1] (setting [16]) and in test [2] (setting [19]) were −0.36 and 0.09, respectively. In test [2] (setting [20]), the “Cholesterol-free media + simvastatin (0.04 μM)” value is given as 0.9722. In test [2] (setting [21]), the “Complete Media” value stood at 1.066.
On to `CC(C)NCC(O)COc1ccc(CCOCC2CC2)cc1` (stereo not drawn) [Betaxolol (hydrochloride)], for which the Difference in test [1] (setting [3]) is on record as −0.02; in test [2] (setting [19]) it was 0.03. The same compound gave a Cholesterol-free in test [1] (setting [8]) of 0.8929. Further, the Complete in test [1] (setting [9]) is 0.8739. Besides, the “Cholesterol-free media + simvastatin (0.04 μM)” value in test [2] (setting [20]) amounted to 1.08. Also, the “Complete Media” value in test [2] (setting [21]) was 1.11.
In the case of `Cl.Cl.[O-][S+]1c2ccccc2N=C(N2CCN(CCOCCO)CC2)c2ccccc21` (stereo not drawn) [Quetiapine sulfoxide (dihydrochloride)], the Cholesterol-free in test [1] (setting [4]) is 1.151. This compound yielded a Complete in test [1] (NCI-H292 cells, complete media) of 0.7759. The Difference in test [1] (setting [16]) is −0.38; in test [2] (setting [11]) it was −0.10. In addition, in test [2] (setting [13]), the “Cholesterol-free media + simvastatin (0.04 μM)” value is listed as 1.184. Besides, the “Complete Media” value in test [2] (setting [14]) is on record as 1.082.
On to `NC(=O)c1cnc2[nH]ccc2c1N[C@@H]1[C@@H]2CC3C[C@H]1C[C@@](O)(C3)C2` [Peficitinib], for which the Difference is listed as −0.03 in test [1] (setting [3]) and 0.11 in test [2] (setting [19]). The Cholesterol-free in test [1] (setting [8]) is 1.336. Also, in test [1] (setting [9]), the Complete is 1.303. Moreover, the “Cholesterol-free media + simvastatin (0.04 μM)” value in test [2] (setting [20]) stood at 0.6674. The “Complete Media” value in test [2] (setting [21]) is reported as 0.776.
The compound `CN(CCOc1ccc(CC2SC(=O)NC2=O)cc1)c1ccccn1.O=C(O)/C=C\C(=O)O` (stereo not drawn) [Rosiglitazone (maleate)] came in with a Cholesterol-free in test [1] (setting [8]) of 1.107. The compound also gave a Complete in test [1] (setting [9]) of 1.422. Also, the Difference is given as 0.32 in test [1] (setting [10]) and 0.05 in test [2] (setting [19]). In test [2] (setting [20]), the “Cholesterol-free media + simvastatin (0.04 μM)” value was 0.848. Besides, in test [2] (setting [21]), the “Complete Media” value came to 0.8943.
For `COc1ccccc1N1CCN(CCCNc2cc(=O)n(C)c(=O)n2C)CC1` [Urapidil (hydrochloride)], the Difference in test [1] (setting [3]) is −0.28; in test [2] (setting [11]), −0.35. The Cholesterol-free in test [1] (setting [4]) worked out at 1.01. In test [1] (NCI-H292 cells, complete media), this compound displayed a Complete of 0.7335. Also, the “Cholesterol-free media + simvastatin (0.04 μM)” value in test [2] (setting [17]) is given as 1.22. Besides, in test [2] (setting [18]), the “Complete Media” value worked out at 0.87.
Safinamide (mesylate): the Difference in test [1] (Complete minus Cholesterol-free, greater than 0 enhanced anti-cancer activity, about 0 neutral, below 0 antagonist) is reported as −0.18; in test [2] (setting [11]), −0.20. Further, in test [2] (drug in complete media), the “Complete Media” value was 0.843.
